Experimental data taken from patent publication US20230280334A1, “CDC20 VARIANTS RESISTANT TO ANTI-MITOTIC DRUGS AND RELATED METHODS AND COMPOSITIONS” (Whitehead Institute for Biomedical Research, priority 2021, published 2023).

Key:
[1] = tested on: HeLa cells; assay: Time-lapse mitotic timing / mitotic arrest duration in HeLa cells; format: cell-based, human; details: for median arrest time / median mitotic arrest duration: HeLa; for median arrest time: 10 µM STLC (FIG. 6D); for median mitotic arrest duration: 10 µM STLC (FIG. 5E); for Mitotic time (min), HeLa: in the presence of 10 µM STLC with the indicated drug or RNAi treatment, mean ± standard deviation, two replicates
Method: (§1) Mitotic arrest duration in the presence of 10 µM STLC for control HeLa compared to the ΔM1 and M1-stop mutant cell lines with the indicated drug or RNAi treatment (see FIGS. 3F, 9D). Indicated is the mean mitotic duration ± standard deviation across two experimental replicates. Statistics from Mann-Whitney Test (**** = p < 0.0001, NS = not significant).
(§2) HeLa, hTERT-RPE1, U2OS, and A549 cell lines were cultured in Dulbecco’s modified Eagle medium (DMEM) supplemented with 10% fetal bovine serum (FBS), 100 U/mL penicillin and streptomycin, and 2 mM L-glutamine at 37° C. with 5% CO2. Doxycycline-inducible cell lines were cultured in medium containing FBS certified tetracycline free. Cas9 expression in inducible CRISPR/Cas9 cell lines was induced with 1 µg/ml doxycycline hyclate (##) at 24 hr interval for 2 days. Other drugs used on human cells were Nocodazole (##, 330 nM), S-trityl-L-cysteine (STLC, ##, 10 µM), Taxol (##, 1 µM), GSK923295 (CENP-E inhibitor, ##, 100 nM), proTAME (APC/Ci, ##, 12 µM), AZ-3146 (Mps1i, ##, 4 µM) unless concentration indicated otherwise in figure legend. Cells were enriched in mitosis with treatment with 330 nM nocodazole for 16-17 hrs. Cell lines were tested monthly for mycoplasma contamination.
(§3) Cells were later moved to CO2-independent media (##) before imaging at 37° C. Phase contrast images were acquired on a Nikon eclipse microscope equipped with a charge-coupled device (CCD) camera (Clara, Andor) or a CMOS camera (##) using a Plan Fluor 20X/0.5 NA objective at either 5 min or 10 min intervals. Time-lapse movies were analyzed using Fiji (ImageJ, NIH), ilastik (##) and CellProfiler (##). Image brightness and contrast was adjusted in Fiji, pixel-based classification was performed on individual images using ilastik and the resulting probability map images were processed by CellProfiler to identify and track mitotic cells. Each mitotic cell was then confirmed manually and the mitotic duration was determined as the time from cell rounding at mitotic entry to cell flattening after mitotic exit.

[2] = tested on: ΔM1 mutant cell line (HeLa lacking the canonical M1 ATG start codon of CDC20); assay: Time-lapse mitotic arrest duration in ΔM1 mutant cell line; format: cell-based, human; details: for Mitotic time (min), ΔM1: in the presence of 10 µM STLC with the indicated drug or RNAi treatment, mean ± standard deviation, two replicates; for mitotic arrest / mitotic exit behaviour in the presence of STLC: ΔM1 cells, 10 µM STLC alone or with the named agent
Method: as §1, §2
(§4) Stable clonal cell lines lacking the canonical full-length Cdc20 protein were obtained by transfecting HeLa cells with pX330-based plasmids [Cong 2013] expressing spCas9 and either the sgM1 (for ΔM1 mutant) or the sgExon1 guide RNA (for M1-stop mutant). pX330-based plasmids were transfected using Xtremegene-9 (##) together with a mCherry-expressing plasmid and mCherry-positive cells were fluorescence activated cell-sorted into 96 well plates with one cell per well. Clones were screened for successful gene editing and the CDC20 allele sequence information was determined by next-generation sequencing (Genewiz Amplicon-EZ).
as §3

[3] = tested on: M1-stop mutant cell line (HeLa lacking full-length Cdc20); assay: Time-lapse mitotic arrest duration in M1-stop mutant cell line; format: cell-based, human; details: for mitotic arrest / mitotic exit behaviour in the presence of STLC: M1-stop cells, 10 µM STLC alone or with the named agent; for Mitotic time (min), M1-stop: in the presence of 10 µM STLC with the indicated drug or RNAi treatment, mean ± standard deviation, two replicates
Method: as §1, §2, §4, §3

[4] = tested on: U2OS cells; assay: Time-lapse mitotic arrest duration in U2OS cells; format: cell-based, human; details: for median arrest time: U2OS, 10 µM STLC (FIG. 6D)
Method: (§5) FIGS. 6A-6D show downstream in-frame Cdc20 translation initiation influences the mitotic slippage behavior of cancer cell lines. (FIG. 6A) Mitotic arrest duration of individual HeLa, U2OS, or A549 cells treated with 10 µM STLC alone or with a combination of STLC and siRNA treatment (either control siRNAs or Cdc20 siRNAs). Cells entering mitosis in the first 600 min (HeLa) or 700 min (U2OS/A549) of time lapse experiments were included in analyses. Open red circles indicate cells that exit mitosis. Closed black circles indicate cells that remained arrested in mitosis till the end of the time lapse. Blue circles indicate cells that die in mitosis. Bars correspond to median. Indicated are the median mitotic duration times across two experimental replicates. (FIG. 6B) Western blot of mitotically-enriched U2OS cells expressing endogenous Cdc20 protein or upon Cdc20 replacement with either wild-type CDC20 cDNA or a CDC20 M43L M88L mutant construct. Cells were enriched in mitosis with 10 µM STLC for 18 hrs. Cdc20 protein was detected using antibodies recognizing the human Cdc20 C-terminus (aa 450-499). β-actin was used as loading control. (FIG. 6C) Western blot similar to (B) for A549 cells except that ectopic constructs were induced with 50 ng/ml doxycycline. (FIG. 6D) Top, schematic illustrating the Cdc20 replacement strategy with siRNA-resistant 5′ UTR-CDC20 cDNA constructs from a doxycycline-inducible promoter combined with depletion of endogenous Cdc20 protein by siRNA treatment. Cells were treated with 10 ng/ml (HeLa/U2OS) or 50 ng/ml (A549) doxycycline. […]
(§6) Cells were later moved to CO2-independent media (##) before imaging at 37° C. […] Time-lapse movies were analyzed using Fiji (ImageJ, NIH), ilastik (##) and CellProfiler (##). […] Each mitotic cell was then confirmed manually and the mitotic duration was determined as the time from cell rounding at mitotic entry to cell flattening after mitotic exit.

[5] = tested on: A549 cells; assay: Time-lapse mitotic arrest duration in A549 cells; format: cell-based, human; details: for median arrest time: 10 µM STLC (FIG. 6D)
Method: as §5, §6

[6] = tested on: HEC-6 cells; assay: Mitotic arrest duration in HEC-6 cells; format: cell-based; details: 10 µM STLC (FIG. 14C)
Text: (FIG. 14B) HEC-6 cells express reduced levels of full-length Cdc20 protein and thus higher relative levels of the alternative Cdc20 isoforms, compared to control HeLa cells.

[7] = Cdc20 replacement with Cdc20 M43L M88L
[8] = Cdc20 replacement with wild-type CDC20 construct

Molecule: N[C@@H](CSC(c1ccccc1)(c1ccccc1)c1ccccc1)C(=O)O [STLC, S-trityl-L-cysteine]
- median arrest time [1, 7]: 2110 min
- median arrest time [1, 8]: 1755 min
- median mitotic arrest duration ([1]; endogenous Cdc20 replaced with altATGmutx2 mutant construct): 1370 min
- median mitotic arrest duration ([1]; endogenous Cdc20 replaced with wild-type siRNA-resistant CDC20 construct): 1810 min
- median mitotic arrest time ([1]; STLC-treated HeLa, 10 µM STLC alone (FIG. 6A)): 1645 min
- time arrested in mitosis after mitotic entry ([1]; control HeLa, 10 µM STLC, time-lapse (FIG. 3A)): > 10 h
- Mitotic time (min), HeLa ([1]; listed as STLC/DMSO): 780±203 (n=103) min
- Mitotic time (min), HeLa ([1]; listed as STLC/siCtrl): 805±168 (n=122) min
- Mitotic time (min), ΔM1 ([2]; listed as STLC/DMSO): 60±24 (n=97) min
- Mitotic time (min), ΔM1 ([2]; listed as STLC/siCtrl): 65±37 (n=88) min
- mitotic arrest / mitotic exit behaviour in the presence of STLC [2]: exit mitosis within a few hours
- mitotic arrest / mitotic exit behaviour in the presence of STLC [3]: exit mitosis within a few hours
- Mitotic time (min), M1-stop ([3]; listed as STLC/DMSO): 67±12 (n=85) min
- Mitotic time (min), M1-stop ([3]; listed as STLC/siCtrl): 70±18 (n=90) min
- median mitotic arrest time ([4]; STLC-treated U2OS, 10 µM STLC alone (FIG. 6A)): 805 min
- median arrest time [4, 7]: 1100 min
- median arrest time [4, 8]: 690 min
- median arrest time ([5]; A549, Cdc20 replacement with Cdc20 M43L M88L): 1140 min
- median arrest time ([5]; A549, Cdc20 replacement with wild-type CDC20 construct): 920 min
- median mitotic arrest time ([5]; STLC-treated A549, 10 µM STLC alone (FIG. 6A)): 780 min
- mitotic arrest duration compared to control HeLa cells [6]: reduced mitotic arrest duration compared to control HeLa cells

Molecule: COC(=O)[C@H](CCCN=C(NC(=O)OCOC(=O)Cc1ccccc1)NC(=O)OCOC(=O)Cc1ccccc1)NS(=O)(=O)c1ccc(C)cc1 [proTAME]
- mitotic arrest / mitotic exit behaviour in the presence of STLC [2]: suppressed the premature mitotic exit
- mitotic arrest / mitotic exit behaviour in the presence of STLC [3]: suppressed the premature mitotic exit

Molecule: AZ3146
- mitotic arrest / mitotic exit behaviour in the presence of STLC [2]: not exacerbated further
- mitotic arrest / mitotic exit behaviour in the presence of STLC [3]: further reduce the arrest
